One compound from US5811408A, “2'-deoxy-2'-(substituted or unsubstituted)methylidene-4'-thionucleosides” (Yamasa Corporation, priority 1994, dated 1998) can be followed below.

One test relates to HCT-15. The experiment in a line: Proliferation Inhibitory Activity on Cultured Cells (in vitro test, MTT), HCT-15. It is filed as cell-based. The note with it: Homo sapiens; HCT-15, Colon adenocarcinoma; 72 hours, 37° C. Here is the method:
(§1) Proliferation Inhibitory Activity on Cultured Cells (in vitro test)
(§2) Cells in the logarithmic growth phase were suspended in a medium for inoculation, and seeded into each well of a 96-well plate so that the number of the cells would be 3×10^3 /180 microliters/well. To each well was added 20 microliters of a sample solution or water, and incubation was carried out at 37° C. for 72 hours. After incubation, 25 microliters of an MTT solution (2 mg/ml, prepared in PBS) was added, and incubation was further conducted at 37° C. for 4 hours. The medium was removed, and the MTT-formazane formed was dissolved in 200 microliters of dimethyl sulfoxide. The absorbance at 540 nm of this solution was measured by a microplate reader. The proliferation inhibitory rate obtained by calculation was plotted on a graph paper against the concentration of the sample. Then, the 50% inhibitory concentration (IC50) was determined for evaluation of the antitumor effect.
(§3) The results of the test carried out by using the compound of the present invention (the beta-anomer of 2'-deoxy-2'-methylidene-4'-thiocytidine synthesized in Example 1) are shown in Table 1.

A further test has as its system MG-63. The experiment in a line: Proliferation Inhibitory Activity on Cultured Cells (in vitro test, MTT), MG-63. Format: cell-based. The note with it: Homo sapiens; MG-63, Osteosarcoma; 72 hours, 37° C. The procedure:
as §1, §2, §3

Another test concerns MCF-7. The experiment in a line: Proliferation Inhibitory Activity on Cultured Cells (in vitro test, MTT), MCF-7. It is filed as cell-based. To be noted: Homo sapiens, MCF7; MCF-7, Breast carcinoma; 72 hours, 37° C. The procedure:
as §1, §2, §3

The subject of test [1] is murine P388 leukemia cells. As to the kind of experiment: Antitumor Activity in mice bearing P388 leukemia (in vivo test). The note with it: BDF1 mice, 10 mg/kg intraperitoneally once a day, Day 1, 2, 5, 6. Here is the method:
Antitumor Activity in mice bearing P388 leukemia (in vivo test)
DBA/2 mice were intraperitoneally inoculated with murine P388 leukemia cells. On day 0, ascites was collected from the DBA/2 mice, and P388 leukemia cells were intraperitoneally implanted into BDF1 mice so that the number of the cells would be 1×10^6 /mouse. A sample was dissolved in dimethyl sulfoxide, and this sample solution was intraperitoneally administered to the mice once a day. The antitumor effect was evaluated by comparing the survival time of the administered group with that of the control group.
The results of the test carried out by using the compound of the present invention (the beta-anomer of 2'-deoxy-2'-methylidene-4'-thiocytidine synthesized in Example 1) are shown in Table 2.

In another test the test system is KK-47. As to the kind of experiment: Proliferation Inhibitory Activity on Cultured Cells (in vitro test, MTT), KK-47. Format: cell-based. The note with it: Homo sapiens; KK-47, Bladder carcinoma; 72 hours, 37° C. The procedure:
as §1, §2, §3

In a further test the test system is HEp-2. The experiment in a line: Proliferation Inhibitory Activity on Cultured Cells (in vitro test, MTT), HEp-2. The note with it: Homo sapiens; HEp-2, Esophagus carcinoma; 72 hours, 37° C. Format: cell-based. The procedure:
as §1, §2, §3

Another test concerns HOS. The experiment in a line: Proliferation Inhibitory Activity on Cultured Cells (in vitro test, MTT), HOS. The note with it: Homo sapiens, Osteosarcoma, 72 hours, 37° C. Format: cell-based. Here is the method:
as §1, §2, §3

A further test deals with HT1080. As to the kind of experiment: Proliferation Inhibitory Activity on Cultured Cells (in vitro test, MTT), HT1080. Format: cell-based. The note with it: Homo sapiens, HT-1080; HT1080, Soft tissue sarcoma; 72 hours, 37° C. Here is the method:
as §1, §2, §3

In a further test the test system is NUGC-4. As to the kind of experiment: Proliferation Inhibitory Activity on Cultured Cells (in vitro test, MTT), NUGC-4. It is filed as cell-based. The note with it: Homo sapiens; NUGC-4, Stomach adenocarcinoma; 72 hours, 37° C. The procedure: as §1, §2, §3
The test system of a further test is A375. As to the kind of experiment: Proliferation Inhibitory Activity on Cultured Cells (in vitro test, MTT), A375. Format: cell-based. To be noted: Homo sapiens, A-375; A375, Melanoma; 72 hours, 37° C. Here is the method: as §1, §2, §3
Another test concerns QG-90. The experiment in a line: Proliferation Inhibitory Activity on Cultured Cells (in vitro test, MTT), QG-90. Format: cell-based. The note with it: Homo sapiens; QG-90, Small cell lung carcinoma; 72 hours, 37° C. Here is the method:
as §1, §2, §3

A further test deals with Lu-65. The experiment in a line: Proliferation Inhibitory Activity on Cultured Cells (in vitro test, MTT), Lu-65. It is filed as cell-based. To be noted: Homo sapiens; Lu-65, Large cell lung carcinoma; 72 hours, 37° C. Here is the method:
as §1, §2, §3

The next test deals with KKLS. The experiment in a line: Proliferation Inhibitory Activity on Cultured Cells (in vitro test, MTT), KKLS. Format: cell-based. The note with it: Stomach adenocarcinoma, 72 hours, 37° C. Here is the method: as §1, §2, §3
The subject of the next test is PC-10. The experiment in a line: Proliferation Inhibitory Activity on Cultured Cells (in vitro test, MTT), PC-10. Format: cell-based. The note with it: Homo sapiens, PC10; PC-10, Lung squamous cell carcinoma; 72 hours, 37° C. The procedure:
as §1, §2, §3

The test system of another test is Colo320DM. The experiment in a line: Proliferation Inhibitory Activity on Cultured Cells (in vitro test, MTT), Colo320DM. Format: cell-based. To be noted: Homo sapiens, COLO 320DM, Colon adenocarcinoma, 72 hours, 37° C. The procedure:
as §1, §2, §3

The next test relates to murine S-180 cells. The experiment in a line: Antitumor Activity in Mice Implanted with S-180 Cells (in vivo test). The note with it: ICR mice, caudal vein, days 1-5 and 7-10; for Weight of Tumor (mean value ± SE): tumor removed on day 35, control 8.70 ± 1.31; for Inhibitory Rate: tumor weight on day 35. An excerpt: Antitumor Activity in Mice Implanted with S-180 Cells (in vivo test)
ICR mice were intraperitoneally inoculated with murine S-180 cells. On day 0, ascites was collected from the ICR mice, and Sarcoma 180 cells were subcutaneously implanted into ICR mice so that the number of the cells would be 5×10^6 /mouse. A sample was suspended in Macrogol-400/Tween 80 (6:0.8) so that the concentration thereof would be 10 times the concentration at the time of the administration thereof. Thereafter, the suspension was diluted to 1/10 with physiological saline, and injected once a day into the caudal vein of the mice on days 1-5, and on days 7-10. The antitumor effect (inhibitory rate) was evaluated by measuring the weight of the tumor removed on day 35.
The results of the test carried out by using the compound of the present invention (the beta-anomer of 2'-deoxy-2'-methylidene-4'-thiocytidine synthesized in Example 1) are shown in Table 3.

In the next test the test system is QG-96. As to the kind of experiment: Proliferation Inhibitory Activity on Cultured Cells (in vitro test, MTT), QG-96. The note with it: QG-96, Small cell lung carcinoma; 72 hours, 37° C. Format: cell-based. The procedure: as §1, §2, §3
The subject of a further test is SK-Mel-28. The experiment in a line: Proliferation Inhibitory Activity on Cultured Cells (in vitro test, MTT), SK-Mel-28. The note with it: Homo sapiens; SK-Mel-28, Melanoma; 72 hours, 37° C. Format: cell-based. The procedure: as §1, §2, §3
A further test deals with Mia-PaCa-2. As to the kind of experiment: Proliferation Inhibitory Activity on Cultured Cells (in vitro test, MTT), Mia-PaCa-2. To be noted: Homo sapiens; Mia-PaCa-2, Pancreas carcinoma; 72 hours, 37° C. Format: cell-based. The procedure:
as §1, §2, §3

In brackets after ≈: the same amount, converted by molar mass.

As to `C=C1[C@H](n2ccc(N)nc2=O)S[C@H](CO)[C@H]1O` [Compound of the Invention, 2'-deoxy-2'-methylidene-4'-thiocytidine], the IC50 was 0.65 µg/mL (≈ 2.55 µM) in the test on HCT-15; 0.53 µg/mL (≈ 2.08 µM) with MG-63; 0.3 µg/mL (≈ 1.18 µM) in the test on MCF-7; 0.38 µg/mL (≈ 1.49 µM) in the test with KK-47; 4.1 µg/mL (≈ 16.1 µM) in the test with HEp-2; 0.45 µg/mL (≈ 1.76 µM) in the test with HOS. In addition, the IC50 in the test on HT1080 came to 0.21 µg/mL (≈ 0.823 µM); with NUGC-4, 0.6 µg/mL (≈ 2.35 µM); in the test with A375, 0.25 µg/mL (≈ 0.979 µM); with QG-90, 0.32 µg/mL (≈ 1.25 µM); in the test with Lu-65 it was 0.075 µg/mL (≈ 0.294 µM); in the test on KKLS it was 0.77 µg/mL (≈ 3.02 µM). The IC50 turned out to be 1.5 µg/mL (≈ 5.88 µM) with PC-10; 0.06 µg/mL (≈ 0.235 µM) with Colo320DM; 0.5 µg/mL (≈ 1.96 µM) in the test on QG-96; 0.092 µg/mL (≈ 0.36 µM) in the test on SK-Mel-28; 2.4 µg/mL (≈ 9.4 µM) in the test with Mia-PaCa-2. Besides, the “MST (Median survival time)” value in [1] (control (DMSO) 9.0 days) is 12.0 days. The same compound registered a T/C in test [1] (survival vs control (DMSO) = 100) of 133%. Besides, the “Weight of Tumor (mean value ± SE)” value turned out to be 6.39 ± 1.07 with murine S-180 cells (20 mg/kg/day) and 0.80 ± 0.24 in the test with murine S-180 cells (100 mg/kg/day). For the same compound, the “Inhibitory Rate” value is given as 26.6% with murine S-180 cells (20 mg/kg/day) and 90.8% in the test on murine S-180 cells (100 mg/kg/day).

Usually IC50 stands for the concentration at which inhibition is half-maximal. Usually T/C stands for the result in the treated group divided by that in the control group, in per cent.
